Assay results as given in PMC9788324, “In Vitro and In Silico Pharmacological and Cosmeceutical Potential of Ten Essential Oils from Aromatic Medicinal Plants from the Mascarene Islands” (Molecules, 2022).

Columns and labels:
[1] = biological target: T1, porcine pancreatic elastase (Sus scrofa, UniProt P00772); test: chromogenic assay, absorbance at […] nm; type: biochemical; conditions: read-out: Elastase Inhibition / IC50 (μg/mL) (converted)
T1 construct: gene CELA1; commercial native pancreatic enzyme (Sigma-Aldrich); mature form; docking used PDB 1BRU (recalled as porcine elastase 2), not the assay protein

[2] = biological target: T2, collagenase from Clostridium histolyticum (Type IV); test: fluorescence assay, DQ gelatin-fluorescein ([…] nm); type: biochemical, Hathewaya histolytica; conditions: DQ gelatin substrate, 0.2 U/mL enzyme, 15 min preincubation at 37 °C; positive control, printed as '1,1 Phenanthroline' in table
T2 construct: gene colG; native commercial collagenase from EnzChek Gelatinase/Collagenase Assay Kit; ColG/ColH not distinguished; docking used PDB 2Y6I, not the assay protein

T1 sequence (P00772 27-266): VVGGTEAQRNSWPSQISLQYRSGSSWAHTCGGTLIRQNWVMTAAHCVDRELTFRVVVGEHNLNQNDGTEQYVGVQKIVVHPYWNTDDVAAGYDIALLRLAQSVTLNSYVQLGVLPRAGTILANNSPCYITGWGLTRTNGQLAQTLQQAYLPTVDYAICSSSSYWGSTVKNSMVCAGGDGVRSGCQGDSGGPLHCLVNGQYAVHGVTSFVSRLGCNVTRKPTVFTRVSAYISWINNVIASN

Row | IC50 [1] [µM] | Compound | Collagenase Inhibition / IC50 (mg/mL) [2]
1 | 22.1 | C[C@H]1[C@H](C)CC[C@]2(C(=O)O)CC[C@]3(C)C(=CC[C@@H]4[C@@]5(C)CC[C@H](O)C(C)(C)[C@@H]5CC[C@]43C)[C@H]12 [Ursolic acid] | –
2 | – | c1cnc2c(c1)ccc1cccnc12 [1,10-phenanthroline] | 4.20 × 10^−3 ± 0.00 mg/mL
